Data as given in patent US12502391B2, “Multi-kinase inhibitors of VEGF and TGF beta and uses thereof” (AIVIVA BIOPHARMA, INC., priority 2018, dated 2025).

Tested on: TGF-β1 mRNA
Experiment: TGF-β1 mRNA expression (qPCR) in skin of LL-37-challenged mice
Type: in vivo
Details: single intradermal injection 1.6 mg
Protocol: In our study, mice were injected subcutaneously with 40 μl of LL-37 (3.3 mg/mL) to induce inflammatory reactions. Immediately following the LL-37 injection, axitinib, nintedanib, sunitinib, or lenvatinib were individually administered as a single intradermal injection (1.6 mg). LL-37 injection was repeated every 12 hours for a total of 4 injections. Endotoxin-free water and dexamethasone (3 mg/kg by intraperitoneal injection, twice), respectively, were used as negative and positive control groups.
Mice were then anaesthetized, and tissue samples of lesion sites were excised and fixed for H&E stainings and immunohistochemical analysis. Markers for inflammation (CD4 and CD8) were determined using specific antibodies. TGF beta levels are measured by mRNA expression using qPCR.
The TGFb1 mRNA expression in mice induced with LL37 and treated with lenvatinib was 79% of that challenged with LL37 alone (i.e., without treatment).

## COc1cc2nccc(Oc3ccc(NC(=O)NC4CC4)c(Cl)c3)c2cc1C(N)=O [lenvatinib]
LL-37 challenge
  TGF-β1 mRNA expression among all treatment groups: lowest TGF-β1 mRNA expression
LL-37 every 12 hours x4, 48 hours after initial LL-37 injection
  TGFb1 mRNA expression relative to LL37 alone (without treatment): 79%
